Assay results as given in ChEMBL document CHEMBL1201862, “PubChem BioAssay data set” (2004).
Calls of active or inactive are those of the source.

Legend:
[1] = target: G-protein coupled receptor 55 (Homo sapiens, UniProt Q9Y2T6); assay: GPR55 agonists via beta-arrestin recruitment, primary screen, imaging, U2OS cells, beta-arrestin-GFP redistribution (AID 1961); type: functional
Cytochrome P450 2D6 = Cytochrome P450 2D6 (Homo sapiens, UniProt P10635);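 further: CYP2D6 member of a cytochrome P450 panel assay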
Cytochrome P450 3A4 [2] = target: T1, Cytochrome P450 3A4 (Homo sapiens, UniProt P08684)
T1 sequence (P08684 whole entry): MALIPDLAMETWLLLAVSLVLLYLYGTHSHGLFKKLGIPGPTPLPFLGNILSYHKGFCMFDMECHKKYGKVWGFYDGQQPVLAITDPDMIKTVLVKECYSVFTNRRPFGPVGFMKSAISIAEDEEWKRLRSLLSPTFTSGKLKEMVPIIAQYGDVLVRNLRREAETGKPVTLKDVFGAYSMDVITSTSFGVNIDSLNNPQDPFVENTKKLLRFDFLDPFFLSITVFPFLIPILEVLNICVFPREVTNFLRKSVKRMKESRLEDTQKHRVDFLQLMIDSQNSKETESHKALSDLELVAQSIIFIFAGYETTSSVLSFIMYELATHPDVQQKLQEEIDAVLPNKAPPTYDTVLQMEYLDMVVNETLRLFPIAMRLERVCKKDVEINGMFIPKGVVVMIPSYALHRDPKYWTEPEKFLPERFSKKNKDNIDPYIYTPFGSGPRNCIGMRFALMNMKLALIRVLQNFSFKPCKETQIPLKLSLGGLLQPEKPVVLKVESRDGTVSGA

[3] = target: Peroxisome proliferator-activated receptor gamma/Nuclear receptor coactivator 1 (Homo sapiens, UniProt P37231); type: functional;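 further: agonist potency as compounds enhance coactivator SRC-1 recruitment to PPARgamma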
[4] = target: Peroxisome proliferator-activated receptor gamma/Nuclear receptor coactivator 3 (Homo sapiens, UniProt P37231); type: functional;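 further: agonist potency for raising coactivator recruitment to the receptor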
Sequence of Peroxisome proliferator-activated receptor gamma/Nuclear receptor coactivator 3 (P37231 whole entry): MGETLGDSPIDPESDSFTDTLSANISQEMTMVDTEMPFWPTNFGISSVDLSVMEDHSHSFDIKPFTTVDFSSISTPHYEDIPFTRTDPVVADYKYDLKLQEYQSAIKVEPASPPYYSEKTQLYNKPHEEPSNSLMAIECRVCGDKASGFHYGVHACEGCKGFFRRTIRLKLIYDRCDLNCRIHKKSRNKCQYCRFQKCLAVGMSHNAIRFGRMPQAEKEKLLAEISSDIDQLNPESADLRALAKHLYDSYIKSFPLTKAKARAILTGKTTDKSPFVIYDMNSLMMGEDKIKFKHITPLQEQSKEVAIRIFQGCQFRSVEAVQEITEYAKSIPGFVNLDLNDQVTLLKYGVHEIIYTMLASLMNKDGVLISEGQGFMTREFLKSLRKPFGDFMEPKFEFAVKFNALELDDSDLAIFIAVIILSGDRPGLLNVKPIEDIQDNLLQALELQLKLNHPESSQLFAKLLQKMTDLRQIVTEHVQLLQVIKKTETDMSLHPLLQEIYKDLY
Sequence of Peroxisome proliferator-activated receptor gamma/Nuclear receptor coactivator 3 (Q9Y6Q9 whole entry, further chain): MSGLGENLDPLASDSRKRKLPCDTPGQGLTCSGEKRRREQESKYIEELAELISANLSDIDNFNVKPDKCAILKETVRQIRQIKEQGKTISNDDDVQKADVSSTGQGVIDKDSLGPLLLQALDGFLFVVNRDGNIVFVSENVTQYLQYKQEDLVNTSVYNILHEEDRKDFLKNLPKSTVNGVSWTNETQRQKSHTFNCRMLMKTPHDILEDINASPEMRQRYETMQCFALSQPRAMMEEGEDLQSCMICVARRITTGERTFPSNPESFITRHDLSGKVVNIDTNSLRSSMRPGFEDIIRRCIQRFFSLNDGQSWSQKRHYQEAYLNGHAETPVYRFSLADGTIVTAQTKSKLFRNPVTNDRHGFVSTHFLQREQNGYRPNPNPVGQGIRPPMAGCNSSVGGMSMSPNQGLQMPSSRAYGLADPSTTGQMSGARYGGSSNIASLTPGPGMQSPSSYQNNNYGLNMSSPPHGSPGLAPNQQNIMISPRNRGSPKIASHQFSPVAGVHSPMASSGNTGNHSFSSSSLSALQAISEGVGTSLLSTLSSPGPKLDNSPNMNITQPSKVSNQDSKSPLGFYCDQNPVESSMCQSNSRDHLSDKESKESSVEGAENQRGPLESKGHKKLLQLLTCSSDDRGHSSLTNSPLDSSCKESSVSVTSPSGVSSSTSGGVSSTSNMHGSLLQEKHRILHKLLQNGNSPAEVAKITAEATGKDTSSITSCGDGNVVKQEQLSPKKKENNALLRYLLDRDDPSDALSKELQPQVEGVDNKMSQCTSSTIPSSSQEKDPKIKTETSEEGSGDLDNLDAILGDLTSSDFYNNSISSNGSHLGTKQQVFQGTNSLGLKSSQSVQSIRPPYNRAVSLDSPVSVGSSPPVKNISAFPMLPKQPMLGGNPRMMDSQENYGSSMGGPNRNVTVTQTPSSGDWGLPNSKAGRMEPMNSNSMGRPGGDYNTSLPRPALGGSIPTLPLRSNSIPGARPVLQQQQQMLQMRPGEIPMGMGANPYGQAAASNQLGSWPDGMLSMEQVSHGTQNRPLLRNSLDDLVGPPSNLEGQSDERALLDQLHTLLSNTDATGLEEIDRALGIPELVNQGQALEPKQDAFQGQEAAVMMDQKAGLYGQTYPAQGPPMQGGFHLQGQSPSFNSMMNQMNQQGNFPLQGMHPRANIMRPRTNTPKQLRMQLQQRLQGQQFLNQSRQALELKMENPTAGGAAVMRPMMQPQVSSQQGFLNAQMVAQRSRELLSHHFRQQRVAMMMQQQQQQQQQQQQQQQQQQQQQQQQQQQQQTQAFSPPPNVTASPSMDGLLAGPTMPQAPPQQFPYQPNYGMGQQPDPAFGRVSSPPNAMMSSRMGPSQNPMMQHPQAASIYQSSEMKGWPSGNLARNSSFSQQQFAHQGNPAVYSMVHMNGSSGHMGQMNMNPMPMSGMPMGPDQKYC

[5] = target: Peroxisome proliferator-activated receptor gamma/Nuclear receptor coactivator 2 (Homo sapiens, UniProt P37231); type: functional;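 further: agonist potency for raising coactivator recruitment to the receptor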
Sequence of Peroxisome proliferator-activated receptor gamma/Nuclear receptor coactivator 2 (P37231 whole entry): as the sequence (P37231 whole entry) above
Sequence of Peroxisome proliferator-activated receptor gamma/Nuclear receptor coactivator 2 (Q15596 whole entry, further chain): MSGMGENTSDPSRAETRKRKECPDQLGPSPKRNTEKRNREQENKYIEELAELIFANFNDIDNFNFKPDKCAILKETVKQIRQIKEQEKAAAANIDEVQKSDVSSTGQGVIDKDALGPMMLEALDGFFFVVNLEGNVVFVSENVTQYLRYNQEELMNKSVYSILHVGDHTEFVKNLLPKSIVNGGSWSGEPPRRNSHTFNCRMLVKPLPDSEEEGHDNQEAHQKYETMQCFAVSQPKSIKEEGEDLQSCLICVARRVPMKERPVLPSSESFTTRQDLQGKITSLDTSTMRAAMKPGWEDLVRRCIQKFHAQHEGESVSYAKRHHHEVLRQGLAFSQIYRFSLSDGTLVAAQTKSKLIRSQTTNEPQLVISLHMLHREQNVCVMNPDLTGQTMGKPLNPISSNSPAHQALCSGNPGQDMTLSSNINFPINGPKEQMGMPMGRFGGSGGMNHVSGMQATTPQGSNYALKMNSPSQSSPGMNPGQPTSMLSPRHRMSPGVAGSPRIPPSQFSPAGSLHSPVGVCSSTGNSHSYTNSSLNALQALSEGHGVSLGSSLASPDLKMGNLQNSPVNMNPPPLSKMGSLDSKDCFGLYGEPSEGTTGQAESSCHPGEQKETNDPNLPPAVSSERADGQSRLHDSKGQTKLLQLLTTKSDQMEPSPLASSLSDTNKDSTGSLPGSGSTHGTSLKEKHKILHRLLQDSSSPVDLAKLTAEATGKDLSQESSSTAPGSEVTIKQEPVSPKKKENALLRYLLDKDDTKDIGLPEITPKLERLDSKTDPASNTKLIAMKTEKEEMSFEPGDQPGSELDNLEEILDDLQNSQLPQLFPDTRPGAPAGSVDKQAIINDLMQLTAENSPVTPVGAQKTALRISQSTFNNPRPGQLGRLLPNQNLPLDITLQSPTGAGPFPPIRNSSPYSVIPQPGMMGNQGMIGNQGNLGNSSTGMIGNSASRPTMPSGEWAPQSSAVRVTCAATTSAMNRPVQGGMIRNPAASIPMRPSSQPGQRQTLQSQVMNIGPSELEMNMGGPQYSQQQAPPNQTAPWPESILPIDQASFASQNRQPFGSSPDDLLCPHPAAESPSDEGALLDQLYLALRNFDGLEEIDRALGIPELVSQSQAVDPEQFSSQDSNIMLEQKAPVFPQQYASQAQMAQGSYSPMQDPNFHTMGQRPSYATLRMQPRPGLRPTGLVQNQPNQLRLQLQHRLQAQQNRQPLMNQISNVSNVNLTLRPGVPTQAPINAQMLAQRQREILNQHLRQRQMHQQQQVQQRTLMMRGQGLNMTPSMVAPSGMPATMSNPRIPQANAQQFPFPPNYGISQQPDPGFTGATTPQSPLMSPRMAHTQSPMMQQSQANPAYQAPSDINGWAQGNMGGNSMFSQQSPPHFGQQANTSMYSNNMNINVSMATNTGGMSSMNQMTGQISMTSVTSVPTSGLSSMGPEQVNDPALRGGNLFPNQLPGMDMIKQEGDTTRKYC

[6] = HEK293 cell cytotoxicity, dose response, cytotoxicity control, plate reader, cherry-picked samples (AID 743446); type: functional, cell-based
[7] = LGR2 antagonists, dose response, cell-based, HEK293, CRE-luciferase reporter, cherry pick, set 2 (AID 743343); type: functional;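 further: transfected cells were stimulated with diluted bursicon conditioned medium after compound addition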
[8] = control 3'UTR Renilla luciferase suppression, dose response, counter-screen for Shn3 inhibitor project, cell-based, Clone20-Shn3RL, cherry-picked (AID 624133); type: functional
[9] = HepG2 cell cytotoxicity, dose response, cytotoxicity control, plate reader, cherry-pick, antagonist series (AID 743416); type: functional, cell-based
[10] = Shn3 3'UTR reporter inhibitors, dose response, cell-based, Clone20 osteoblasts, firefly luciferase, cherry-picked (AID 624132); type: functional;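 further: firefly luciferase luminescence from reporter carrying the Shn3 3'UTR in osteoblasts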
[11] = MC4R antagonists, dose response, counter-screen for LGR2 antagonist project, cell-based, plate reader, cherry pick (AID 743444); type: functional;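 further: transfected HEK 293 cells stimulated with alpha-MSH peptide; potency of inhibitors of the alpha-MSH evoked signal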
[12] = A549 cell cytotoxicity, dose response, cytotoxicity control, plate reader, cherry-pick, antagonist series (AID 743412); type: functional, cell-based
[13] = HepG2 cell cytotoxicity, dose response, cytotoxicity control for Shn3 inhibitor project, CellTiter-Glo, cherry-picked (AID 624134); type: functional, cell-based
Cytochrome P450 2C9 = Cytochrome P450 2C9 (Homo sapiens, UniProt P11712)
[14] = Dose-response inhibition of insulin secretion in a rat insulinoma line at 5 mM glucose (AID 1117331); type: functional, cell-based; conditions: INS-1E
[15] = target: T2, Bifunctional protein GlmU (Mycobacterium tuberculosis, UniProt P9WMN3); assay: Inhibitors of Mycobacterial Glucosamine-1-phosphate acetyl transferase (GlmU). Secondary screen.; design: species or system Mycobacterium tuberculosis H37Rv
T2 sequence (P9WMN3 whole entry): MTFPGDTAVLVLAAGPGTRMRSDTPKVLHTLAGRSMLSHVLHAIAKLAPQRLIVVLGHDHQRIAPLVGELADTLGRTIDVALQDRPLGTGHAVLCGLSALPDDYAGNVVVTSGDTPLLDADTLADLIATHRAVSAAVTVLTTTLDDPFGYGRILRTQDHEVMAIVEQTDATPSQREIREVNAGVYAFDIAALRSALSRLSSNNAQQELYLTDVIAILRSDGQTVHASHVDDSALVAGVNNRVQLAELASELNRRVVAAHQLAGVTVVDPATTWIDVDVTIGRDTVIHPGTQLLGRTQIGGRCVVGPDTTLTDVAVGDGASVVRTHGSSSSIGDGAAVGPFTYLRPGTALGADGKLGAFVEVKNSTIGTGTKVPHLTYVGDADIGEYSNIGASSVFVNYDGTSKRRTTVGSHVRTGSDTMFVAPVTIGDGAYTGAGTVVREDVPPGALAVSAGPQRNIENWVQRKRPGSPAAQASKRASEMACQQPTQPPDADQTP

[16] = Glucagon-like peptide 1 release potency, NCI-H716 cell line, dose-response, half-maximal inhibitory concentration (AID 1117344); type: functional, cell-based
[17] = half-maximal inhibitory concentration for glucagon-like peptide-1 release, STC-1 cell line, dose-response (AID 1117345); type: functional, cell-based
Protein Tat = target: T3, Protein Tat (Human immunodeficiency virus type 1 group M subtype B (isolate HXB2)(HIV-1), UniProt P04608); type: functional;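 further: tat binding to TAR RNA read out by fluorescence polarization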
T3 sequence (P04608 whole entry): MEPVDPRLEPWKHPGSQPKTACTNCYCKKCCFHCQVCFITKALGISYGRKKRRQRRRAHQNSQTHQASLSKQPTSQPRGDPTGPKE

Cytochrome P450 3A4 [18] = target: T1, Cytochrome P450 3A4; conditions: Potency
[19] = Luminescence Cell-Based Dose Response HTS to Identify Activators of Luciferase Translation or Activity in H4 […] Cells. [Related pubchem assays: 1829 (Project Summary), 1814 (Primary HTS)]; type: functional
[20] = Luminescence Cell-Based Dose Response to Identify Activators of Luciferase Translation or Activity in H4-C Neuroglioblastoma Cells. [Related pubchem assays: 1829 (Project Summary), 1814 (Primary HTS)]; type: functional
[21] = Luminescence Cell-Based Dose Confirmation to Identify Activators of 5'UTR Stem-Loop Driven Alpha-Synuclein mRNA Translation in H4 Neuroglioblastoma Cells. [Related pubchem assays: 1829 (Project Summary), 1814 (Primary HTS)]; type: functional
[22] = Luminescence Cell-Based Dose Response to Identify Activators of 5'UTR Stem-Loop Driven Prion Protein mRNA Translation in H4-C Neuroglioblastoma Cells. [Related pubchem assays: 1829 (Project Summary), 1814 (Primary HTS)]; type: functional
H4 = assay: Luminescence Cell-Based Dose Response HTS to Identify Activators of 5'UTR Stem-Loop Driven Prion Protein mRNA Translation in H4 Neuroglioblastoma Cells. [Related pubchem assays: 1829 (Project Summary), 1814 (Primary HTS)]; type: functional; conditions: Homo sapiens
Leucine aminopeptidase = target: T4, Leucine aminopeptidase (Plasmodium falciparum 3D7, UniProt Q8IL11); assay: P. falciparum M17LAP inhibitors, primary screen, biochemical, fluorogenic H-Leu-NHMec substrate, 1536-well (AID 1619); type: functional
T4 sequence (Q8IL11 whole entry): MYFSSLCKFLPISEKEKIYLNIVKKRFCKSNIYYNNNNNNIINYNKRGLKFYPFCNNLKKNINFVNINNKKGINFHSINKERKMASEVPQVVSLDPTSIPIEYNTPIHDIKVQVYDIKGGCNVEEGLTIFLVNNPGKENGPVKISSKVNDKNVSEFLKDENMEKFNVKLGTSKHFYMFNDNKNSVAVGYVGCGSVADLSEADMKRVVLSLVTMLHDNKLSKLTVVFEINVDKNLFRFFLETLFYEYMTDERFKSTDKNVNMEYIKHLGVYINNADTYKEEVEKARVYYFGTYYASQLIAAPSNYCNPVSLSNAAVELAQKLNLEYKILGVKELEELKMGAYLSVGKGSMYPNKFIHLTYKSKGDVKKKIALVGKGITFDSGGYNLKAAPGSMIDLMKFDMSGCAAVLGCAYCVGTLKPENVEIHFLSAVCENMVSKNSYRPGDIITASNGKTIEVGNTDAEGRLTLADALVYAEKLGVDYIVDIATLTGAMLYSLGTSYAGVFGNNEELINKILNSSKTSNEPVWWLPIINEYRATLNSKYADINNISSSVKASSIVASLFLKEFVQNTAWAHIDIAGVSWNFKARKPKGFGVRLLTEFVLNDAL

[23] = target: Luciferin 4-monooxygenase (Photinus pyralis, UniProt P08659); assay: firefly luciferase enzyme inhibitors, dose response, biochemical, luminescence (AID 1891)
BJ [24] = assay: cells; type: functional, cell-based; conditions: Homo sapiens
[25] = Luminescence Cell-Based Dose Confirmation HTS to Identify Inhibitors of Platelet Dense Granule Release. [Related pubchem assays: 1663 (Primary HTS), 1678 (Summary of Project)]; type: functional
BJ [26] = assay: cytotoxicity toward BJ-TERT-LT-ST fibroblasts, dose response, cell-based, RAS-independent, luminescence (AID 1935); type: functional; conditions: Homo sapiens;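 further: BJ fibroblasts immortalized with TERT plus LT and ST oncogenes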
[27] = cytotoxicity toward DRD oncogenic fibroblasts, dose response, cell-based, non-viral oncogenic, luminescence (AID 1934); type: functional; conditions: Homo sapiens
Protein skinhead-1 = target: T5, Protein skinhead-1 (Caenorhabditis elegans, UniProt P34707); type: functional
T5 sequence (P34707 whole entry): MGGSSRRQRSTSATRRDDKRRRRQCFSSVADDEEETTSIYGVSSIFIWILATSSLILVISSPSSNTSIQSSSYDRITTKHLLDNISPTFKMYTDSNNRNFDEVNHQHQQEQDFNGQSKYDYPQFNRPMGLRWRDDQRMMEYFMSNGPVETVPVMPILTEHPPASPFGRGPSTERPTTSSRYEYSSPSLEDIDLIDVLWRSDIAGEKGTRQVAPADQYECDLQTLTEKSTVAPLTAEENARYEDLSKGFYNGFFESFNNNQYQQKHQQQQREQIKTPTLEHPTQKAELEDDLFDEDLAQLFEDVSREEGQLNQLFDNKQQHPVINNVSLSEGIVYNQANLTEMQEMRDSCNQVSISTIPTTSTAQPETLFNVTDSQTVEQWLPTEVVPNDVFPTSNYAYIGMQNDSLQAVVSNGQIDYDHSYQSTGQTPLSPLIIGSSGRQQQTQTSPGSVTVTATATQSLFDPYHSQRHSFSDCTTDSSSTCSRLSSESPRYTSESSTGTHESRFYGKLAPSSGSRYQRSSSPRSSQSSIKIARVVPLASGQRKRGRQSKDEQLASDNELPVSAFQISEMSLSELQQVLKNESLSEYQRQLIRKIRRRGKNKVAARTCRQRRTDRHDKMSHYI

BJ [28] = assay: cytotoxicity toward BJ-TERT fibroblasts, dose response, cell-based, RAS-independent, luminescence (AID 1933); type: functional; conditions: Homo sapiens
[29] = Luminescence Cell-Based Dose Confirmation HTS to Identify Activators of 5'UTR Stem-Loop Driven Alpha-Synuclein mRNA Translation in H4 Neuroglioblastoma Cells. [Related pubchem assays: 1829 (Project Summary), 1814 (Primary HTS)]; type: functional

Sequence of G-protein coupled receptor 55 (Q9Y2T6 whole entry): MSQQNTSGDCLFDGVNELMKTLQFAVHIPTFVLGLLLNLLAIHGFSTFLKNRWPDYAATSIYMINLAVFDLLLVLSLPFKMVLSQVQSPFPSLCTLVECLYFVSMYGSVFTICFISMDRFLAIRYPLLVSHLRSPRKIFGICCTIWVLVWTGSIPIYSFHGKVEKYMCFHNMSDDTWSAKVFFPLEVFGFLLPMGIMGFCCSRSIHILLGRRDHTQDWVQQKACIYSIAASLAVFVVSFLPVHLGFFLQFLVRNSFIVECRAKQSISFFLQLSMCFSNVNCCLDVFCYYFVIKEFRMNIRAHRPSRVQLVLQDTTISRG

CCOC(=O)C(=Cc1ccc(-c2ccsc2C(=O)OC)o1)C(=O)OCC
EC50 [1]: 18.4 µM (inactive) | AC50 (Cytochrome P450 2D6): 39.8 µM (inconclusive) | AC50 (Cytochrome P450 3A4 [2]): 39.8 µM (inconclusive)

CC1(C)Cc2c(C#N)c(SCC(=O)c3ccccc3)nc(N3CCOCC3)c2CO1
EC50 [3]: > 79.4 µM (not active) | EC50 [4]: > 79.4 µM (not active) | EC50 [5]: 79.4 µM (not active)

CCCCNc1c(-c2cccc(-c3ccc(OC)cc3)c2)nc2cc(C)ccn12
AC50 [6]: 14.5 µM (active) | AC50 [7]: 8.28 µM (active) | AC50 [8]: 10.6 µM (active) | AC50 [9]: 21.9 µM (active) | AC50 [10]: 12.1 µM (active) | AC50 [11]: 10.9 µM (active) | AC50 [12]: 17.7 µM (active) | AC50 [13]: 38.9 µM (active)

COc1ccc2c(c1)C(=O)N(CCc1ccc(S(=O)(=O)NC(=O)NC3CCCCC3)cc1)C(=O)C2(C)C [GLIQUIDONE]
AC50 (Cytochrome P450 2C9): 12.6 µM (inconclusive) | IC50 [14]: 0.23 µM (active)

N#C/C(=C\c1ccc(-c2ccc(C(=O)O)cc2)o1)c1nc2ccccc2[nH]1
IC50 [15]: 51.3 µM (active)

FC(F)(F)C(F)(F)C(F)(F)C(F)(F)C(F)(F)C(F)(F)C(F)(F)C(F)(F)Br [PERFLUBRON]
IC50 [16]: > 40 µM (inactive) | IC50 [17]: > 40 µM (inactive) | IC50 [14]: > 33.3 µM (inactive)

COc1ccc2cc(C3C(C#N)=C(N)OC(C)=C3C(C)=O)c(Cl)nc2c1 (configuration not stated)
IC50 (Protein Tat): > 100 µM (active)

C=C(C)C(O)/C=C/CCCCCCC (configuration not stated)
AC50 (Cytochrome P450 3A4 [18]): 3.98 µM (inconclusive)

FC(F)(F)c1ccc(CN2C[C@@H]3C(c4ccc(C(F)(F)F)cc4)C4(c5ccccc5)CC3(C4)[C@H]2c2ccccc2)cc1 (some centres not stated)
AC50 (Cytochrome P450 3A4 [18]): 0.316 µM (inconclusive)

COc1ccc(-c2nc3c(c4c2CC(C)OC4)CN(CCC(C)C)CC3)cc1 (configuration not stated)
AC50 (Cytochrome P450 3A4 [18]): 3.16 µM (inconclusive)

COc1ccc(C)cc1N
AC50 (Cytochrome P450 3A4 [18]): 31.6 µM (inconclusive)

CC(=O)c1cnc2cc(-c3ccc(C)cc3)nn2c1C
EC50 [19]: < 0.1 µM (active) | EC50 [20]: 0.319 µM (active) | EC50 [21]: 0.297 µM (active) | EC50 [22]: 0.223 µM (active)

O=C(NC1CCCCCCC1)NC1CCCCC1
EC50 [19]: 5.81 µM (active) | EC50 [20]: 1.12 µM (active) | EC50 (H4): > 120 µM (not active) | EC50 [21]: > 12 µM (not active) | EC50 [22]: 1.84 µM (active)

CC(=O)c1cccc(NC(=O)c2cc3ccccn3n2)c1
EC50 [3]: > 79.4 µM (not active) | EC50 [4]: > 79.4 µM (not active) | EC50 [5]: > 79.4 µM (not active)

O=C(CN1C(=O)c2ccccc2S1(=O)=O)NCCSc1ccccc1
IC50 (Leucine aminopeptidase): 5.54 µM (active)

CC(/C=N/NC(=O)c1nnn(-c2nonc2N)c1CN1CCCCC1)=C\c1ccccc1
EC50 [1]: < 0.5 µM (active)

CCN1CCN(C(=O)CN(C)S(=O)(=O)c2ccc(OC)c(C)c2)CC1
IC50 (Protein Tat): > 100 µM (active)

CCCSc1ccc2nc(-c3ccccc3)cn2c1
EC50 [23]: 0.709 µM (active) | EC50 (BJ [24]): 19.6 µM (active) | AC50 [6]: 39.5 µM (active) | AC50 [7]: 0.951 µM (active) | AC50 [9]: 20.7 µM (active) | EC50 [25]: 2.14 µM (active) | EC50 (BJ [26]): > 150 µM (not active) | AC50 [11]: 1.2 µM (active) | AC50 [12]: 39.3 µM (active) | EC50 [27]: 20.9 µM (active) | IC50 (Protein skinhead-1): > 100 µM (inactive) | EC50 (BJ [28]): 22.8 µM (active)

O=C(CSc1nnnn1C1CCCC1)N1CCCCC1
EC50 [19]: < 0.1 µM (active) | EC50 [20]: 0.57 µM (active) | EC50 (H4): > 120 µM (not active) | EC50 [21]: 0.524 µM (active) | EC50 [29]: 0.118 µM (active) | EC50 [22]: 0.537 µM (active)

Fc1cc(Br)ccc1CBr
IC50 [16]: > 40 µM (inactive) | IC50 [17]: > 40 µM (inactive) | IC50 [14]: > 33.3 µM (inactive)

CC1CCN(Cc2c(C(=O)N/N=C/c3ccc(OC(C)C)cc3)nnn2-c2nonc2N)CC1
EC50 [1]: 3.41 µM (active)
